Measurements taken from patent EP1288203A1, “Cyclic nitrones and pharmaceutical compositions containing them” (Aventis Pharmaceuticals Inc., priority 1995, dated 1997).
Like-named read-outs stand apart in the source and are kept apart here.

Tests used:
cerebellar granule cells = test: Protection of cerebellar granule cells against Fe2+-induced oxidative damage; assay type: cell-based, rats; conditions: Rattus norvegicus, 100 µM ferrous chloride
Experimental: The cyclic nitrones were tested for their ability to protect primary cultures of cerebellar granule cells against oxidative injury induced by treatment with Fe^2+. Cerebellar granule cell cultures were prepared from 8 day old rats as previously described. Levi, G., Aloisi, F., Ciotti, M.T., Thangnipon, W., Kingsbury, A., and Balazs, R. (1989) In: A Dissection and Tissue Culture Manual of the Nervous System (Shahar, A., de Vellis, J., Vernadakis, A., and Haber, B., eds.) Alan R. Liss, Inc. New York, NY, pp. 211-214. Briefly, 8-10 cerebella were removed and placed in a Crebs-Ringer bicarbonate medium supplemented with BSA and MgSO4. Cerebella were finely chopped and digested with a trypsin/Krebs-Ringer solution. Cells were then dispersed by trituration in Krebs-Ringer containing DNase, MgSO4 and trypsin inhibitor followed by plating at a density of 1x10^6 cells/well in poly-1-lysine coated plate in MEM/10% fetal bovine serum/KCl/glutamine/gentamicin. Media was replaced at 24 hours and cytosine arabinoside added. Experiments were conducted with cells 8-10 days in vitro.
For oxidation studies the media was removed and replaced with Na^+ free Locke's solution (154.6 mM N-methyl-D-glucamine, 5.6 mM KCl, 2.3 mM CaCl2, 1 mM MgCl2, 3.6 mM NaHCO3, and 5 mM HEPES, pH 7.3) with the omission of glucose. The nitrones were added in either Locke's solution or in 20% β-cyclodextrins and allowed to incorporate into the cells for 30 min. At this time 20 µl of a 5 mM stock solution of ferrous chloride was added for a final concentration of 100 µM. After 45 min the media was removed and added to 1.5 ml of TBA/TCA (2:1) with 25 µl of 2% BHT and TBARS determined as described above. The absorbance of the control cells (no iron) was subtracted from the iron treated cells and this value taken as the denominator to determine the concentration of nitrone required to inhibit oxidation by 50%.
Fresh MEM media was added to the cells along with 100 µl of MTT. After 4 hrs, 1 ml of cold isopropanol/0.04 N HCl was added, the cells scraped, mixed well and transferred to 13 x 100 mm glass test tubes. The absorbance resulting from mitochondrial reduction of the MTT (570 nm minus 630 nm) was measured as an assessment of viability. The % cell death was determined by comparison to the absorbance of cells to which no iron was added. The difference between the iron-treated and control cells was taken as 100% and the concentration of nitrone to prevent the loss of MTT reduction capability (expressed in Table II as viability) by 50% was used as the IC50.

[1] = Sedation after administration in rats; conditions: high doses in rats
[2] = Hydroxyl radical trapping (inhibition of the •OH-dependent bleaching of p-NDA); assay type: biochemical; conditions: IC50 for hydroxyl radical trapping in vitro
Experimental: Cyclic nitrones were evaluated for •OH trapping activity by a variety of tests. The primary assay was dependent upon the ability of the compounds to inhibit the •OH-dependent bleaching of p-NDA. Bors, W., Michel, C., and Saran, M. (1979) J. Biochem. 95, 621-627. The p-NDA was prepared at 1 mM in 50 mM NaCl, pH 7.0. The hydroxyl radical was generated using Fenton chemistry (Fe^2+/H2O2). FeCl2 is dissolved in N2 purged, double distilled H2O to a final concentration of 2.5 mM. H2O2 was prepared from a 30% stock solution (8.8 M) at 1.25 mM in the buffer. Test compounds were solubilized in buffer or ethanol at a concentration of 1 M or 5 M, depending upon solubility.
Assay mixtures in glass cuvettes contained solutions of 0.02 ml of H2O2, 0.02 ml of test compound, 0.10 ml of p-NDA and 50 mM NaCl, pH 7.0 to a final volume of 0.98 ml. The oxidation was initiated by the addition of 0.02 ml of Fe^2+ and the bleaching of p-NDA was monitored as the loss in absorbance at 440 nm for 100 sec. To generate concentration curves, serial dilutions of the test compounds were made such that a constant volume of 0.02 ml was added to the reaction mixture. Ethanol itself is an •OH trap, thus controls contained an equal volume of ethanol for any test compound requiring this vehicle. […]

[3] = 0.75 h, 45 min, TBARS in media, read-out: TBARS IC50
[4] = IC50 for preventing loss of MTT reduction capability, read-out: Viability

Which IC50 (cerebellar granule cells; [3]) does the source give for `CC1(C)Cc2ccccc2C=[N+]1[O-]` [Compound A, 3,4-dihydro-3,3-dimethylisoquinoline N-oxide, reference compound] here?
The IC50 was 307 µM.

And the IC50 (cerebellar granule cells; [4])?
Its IC50 is 292 µM.

What about the sedation [1] of the same compound?
Its sedation is “causes sedation”.

With `CC1(C)Cc2ccc3ccccc3c2C=[N+]1[O-]` [Compound 10, 3,3-Dimethyl-3,4-dihydrobenzo[h]isoquinoline N-oxide] as the compound, how does the IC50 (cerebellar granule cells; [3]) read?
The IC50 was 104 µM.

And the IC50 (cerebellar granule cells; [4])?
The IC50 was 103 µM.

With `CC1(C)Cc2ccoc2C=[N+]1[O-]` [Compound 23, 5,5-Dimethyl-4,5-dihydrofuro[2,3-c]pyridine N-oxide] as the compound, how does the “OH RADICAL TRAPPING” value [2] read?
Its value is “no effect at 20 mM”.

For `CC1(C)Cc2sccc2C=[N+]1[O-]` [Compound 18, 6,6-Dimethyl-6,7-dihydrothieno[3,2-c]pyridine N-oxide], which IC50 (cerebellar granule cells; [3]) is on record?
Its IC50 is 2600 µM.

What about the IC50 (cerebellar granule cells; [4]) of the same compound?
Its IC50 is 880 µM.
